The record followed here is patent publication US20250035616A1, “Organoid Compositions” (SHIMADZU CORPORATION, priority 2023, published 2025).

For data set [1], the system named is HYDROX-cultured human liver organoid composition. As to the method:
In this Example, the human liver organoid produced in Reference Example 1 was cultured with HYDROX (FIG. 1A) to produce a human liver organoid composition including the HYDROX, and its liver function was identified. The Matrigel-cultured human liver organoid produced in Reference Example 1 was treated with TrypLE Select so that the Matrigel was degraded. The resultant cell cluster was suspended in the medium for a human liver organoid, and was seeded on a HYDROX plate at 300 μL/well, followed by three-dimensional culture (HYDROX culture). The cell cluster was reseeded on a new HYDROX plate every 7 days. The HYDROX plate was produced as described below. In a 48-well adhesive plate, a HYDROX raw material polymer (Psar-PLLA) was mixed with 95% ethanol (Nacalai tesque) at a concentration of 10 mg/mL, and the mixture was warmed at 70° C. for 10 minutes. The dissolved polymer solution was dropped into a culture plate, and was dried for 8 hours or more to produce the human liver organoid composition including the HYDROX. In this Example and the following Examples, the human liver organoid composition including the HYDROX is referred to as “HYDROX-cultured human liver organoid composition.”
(§1) Further, at the initial stage of the development of a new drug, the safety of the drug needs to be accurately evaluated by a hepatotoxicity evaluation test. Accordingly, an investigation was made on the potential of the HYDROX-cultured human liver organoid composition to be applied to the hepatotoxicity evaluation test.

Data set [2] has as its system primary human liver cell. As to the method:
In this Reference Example, 1 lot (lot name: HC4-24, XenoTech) of cultured primary human liver cells were cultured. The cells were rapidly thawed in a shaking water bath at 37° C., and were suspended in OptiTHAW Hepatocyte Isolation Kit (XenoTech) that had been preheated, followed by centrifugation at 100 g and room temperature for 5 minutes. The liver cells were suspended in HCM (Lonza) so that their density became 2.5×10^5 cells/cm^2, followed by seeding on 48-well Corning^RBioCoat™ Collagen I-coated Microplates (Corning). After the cells had been cultured for 48 hours, various tests were performed.
as §1

Take `Cc1c(C)c2c(c(C)c1O)CCC(C)(COc1ccc(CC3SC(=O)NC3=O)cc1)O2` (centres unmarked) [Troglitazone]: the cell viability entry in data set [1] and in data set [2] was “the viability reduced in accordance with the concentration of each of the drugs” in each case.

As to `CCCCc1oc2ccccc2c1C(=O)c1cc(I)c(OCCN(CC)CC)c(I)c1` [amiodarone], the cell viability result in data set [1] and in data set [2] was “the viability reduced in accordance with the concentration of each of the drugs” in each case.

As for `CC(=O)Nc1ccc(O)cc1` [acetaminophen], in data set [1], the cell viability entry is on record as “the viability reduced in accordance with the concentration of each of the drugs”.
